The record followed here is patent US9238026B2, “Inhibitors of viral replication, their process of preparation and their therapeutical uses” (priority 2011, dated 2016).

Where two headings read alike, the source gives them in different places.

For the assay, the system named is NL4-3 strain of HIV-1. Briefly: microbe, parasite or virus in culture. The format is cell-based. On the procedure:
The antiviral activity, particularly against HIV, of compounds according to the invention is evaluated by the protocol described below.
Preparation of Virus stock of the NL4-3 strain of HIV-1
The virus was prepared as described in Lopez et al (Lopez et al, Proc Natl Acad Sci USA., 2006, 103(40):14947-52, by transfecting 2×10^6 293T cells (CRL-1573, ATCC) with following modifications: 6 μg of NL4-3 proviral DNA molecular clone were mixed with Fugene 6 transfection reagent from Roche, and used according to manufacturer's instructions. Forty eight hours later, transfected cell supernatants were harvested, filtered through 0.45-μm-pore-size filters, quantified for HIV-1 p24 antigen by using a Innotest HIV antigen mAb assay (Ingen) according to manufacturer's instructions, and used in infection experiments.
Serial dilutions of compounds to be tested were prepared in complete RPMI medium from 10 mM DMSO stock solutions, and distributed in a volume of 20 μl in 96 well Falcon 353072 Microtest™ tissue culture plate, in order to get 0.5% DMSO final concentration in each well, after the addition of infected cells. Control wells contained also 0.5% DMSO final concentration but no compound.
MT4 cells (from the NIH AIDS Research and Reference Reagent Program) in RPMI complete medium were counted (10×10^6 cells per well in Falcon 353047 Multiwell™ 24 well) and infected for 2 hours at 37°, at a multiplicity of infection (moi) of 0.0001-0.00001. Cells were then centrifuged 3 min at 3000 rpm, and washed two times in 1 ml PBS to remove viruses that have not entered in cells. Infected cells were resuspended in complete RPMI at 1.25×10^6 cells/ml, and […] of infected cells were distributed in each well containing compounds to be tested or control wells. The plates were then incubated at 37° for 5 days.
Assay used to measure the inhibition of HIV replication by the compounds
(according to Gregg S. Jones et al., Antimicrobial Agents and Chemotherapy, 2009, 53 (3): 1194-1203).
After 5 days of incubation, 50 μl of CellTiter-Glo reagent (Promega Biosciences, Inc., Madison Wis., USA) were added to each well. Cell lysis was carried out at room temperature during 10 min, 150 μl of lysates were transferred in Packard Optiplate 96 well, and luminescence was read on a Fluoroskan (Thermo Scientific).
The EC50, or effective concentration 50, is the concentration of compound leading to 50% of cyto-protection in a Cell-Titer-Glo® viability assay based on MT4 cells infected with NL4.3 virus.

Where [1] appears, read: Human immunodeficiency virus 1, NL43, 120 h, concentration leading to 50% of cyto-protection, MT4 cells infected with NL4.3 virus, 5 days incubation, CellTiter-Glo, read-out: EC50.

Turning to `Cc1sc(C)c(C(OC(C)(C)C)C(=O)O)c1-c1ccc(Cl)cc1` (stereo not shown) [Example 50, tert-butoxy-[4-(4-chloro-phenyl)-2,5-dimethyl-thiophen-3-yl]-acetic acid], under setting [1], the EC50 is 44 µM.

Regarding `Cc1sc(C)c(C(OC(C)(C)C)C(=O)O)c1-c1ccc2c(c1)CCCC2` (stereo not shown) [Example 39, 2-(tert-butoxy)-2-[2,5-dimethyl-4-(5,6,7,8-tetrahydronaphthalen-2-yl)thiophen-3-yl]acetic acid], under setting [1], the EC50 turned out to be 41 µM.

For the compound `Cc1sc(C)c(C(OC(C)(C)C)C(=O)O)c1C1=CCC(C)(C)CC1` (stereo not shown) [Example 52, tert-butoxy-[4-(4,4-dimethyl-cyclohex-1-enyl)-2,5-dimethyl-thiophen-3-yl]-acetic acid], the EC50 (Human immunodeficiency virus 1, NL43, MT4, 120 h) turned out to be 33 µM.

Regarding `Cc1sc(C)c(C(OC(C)(C)C)C(=O)O)c1C1=CCCCCC1` (stereo not shown) [Example 31, 2-(tert-butoxy)-2-[4-(cyclohept-1-en-1-yl)-2,5-dimethylthiophen-3-yl]acetic acid], the EC50 under setting [1] stood at 29 µM.

Consider `CC(C)(C)OC(C(=O)O)c1c(C(F)(F)F)nn(C2CCCCC2)c1-c1ccc2c(c1)CCCO2` (stereo not shown) [Example 54, 2-(tert-butoxy)-2-[1-cyclohexyl-5-(3,4-dihydro-2H-1-benzopyran-6-yl)-3-(trifluoromethyl)-1H-pyrazol-4-yl]acetic acid], for which the EC50 under setting [1] was 2.2 µM.

Consider `Cc1sc(Cl)c(-c2ccc3c(c2)CCCO3)c1C(OC(C)(C)C)C(=O)O` (stereo not shown) [Example 44, 2-(tert-butoxy)-2-[5-chloro-4-(3,4-dihydro-2H-1-benzopyran-6-yl)-2-methylthiophen-3-yl]acetic acid], for which the EC50 under setting [1] worked out at 16 µM.

On to `Cc1sc(C)c(C(SC(C)(C)C)C(=O)O)c1-c1ccc2c(c1)CCCO2` (stereo not shown) [Example 32, 2-(tert-butylsulfanyl)-2-[4-(3,4-dihydro-2H-1-benzopyran-6-yl)-2,5-dimethylthiophen-3-yl]acetic acid], for which the EC50 under setting [1] turned out to be 26 µM.

Turning to `Cc1sc(C)c(C(OC(C)(C)C)C(=O)O)c1C1=CCCCC1` (stereo not shown) [Example 29, 2-(tert-butoxy)-2-[4-(cyclohex-1-en-1-yl)-2,5-dimethylthiophen-3-yl]acetic acid], under setting [1], the EC50 came out at 33 µM.

With `Cc1cccc2c1C(c1ccc3c(c1)CCCO3)=C(C(OC(C)(C)C)C(=O)O)S2(=O)=O` (stereo not shown) [Example 24, 2-(tert-butoxy)-2-[3-(3,4-dihydro-2H-1-benzopyran-6-yl)-4-methyl-1,1-dioxo-1λ^6-benzothiophen-2-yl]acetic acid], the EC50 under setting [1] was 11 µM.

Regarding `Cc1sc(C)c(C(OC(C)(C)C)C(=O)O)c1-c1ccc2c(c1)CCCO2` (stereo not shown) [Example 17, 2-(tert-butoxy)-2-[4-(3,4-dihydro-2H-1-benzopyran-6-yl)-2,5-dimethylthiophen-3-yl]acetic acid], the EC50 under setting [1] amounted to 26 µM.

Consider `Cc1cccc2sc(C(OC(C)(C)C)C(=O)O)c(-c3ccc4c(c3)CCCO4)c12` (stereo not shown) [Example 23, 2-(tert-butoxy)-2-[3-(3,4-dihydro-2H-1-benzopyran-6-yl)-4-methyl-1-benzothiophen-2-yl]acetic acid], for which, under setting [1], the EC50 was 23 µM.

Turning to `Cc1sc(C)c(C(OC(C)(C)C)C(=O)O)c1-c1ccccc1Cl` (stereo not shown) [Example 51, tert-butoxy-[4-(2-chloro-phenyl)-2,5-dimethyl-thiophen-3-yl]-acetic acid], under setting [1], the EC50 came to 41 µM.

Turning to `CC1=C(c2ccc3c(c2)CCCO3)C(C(OC(C)(C)C)C(=O)O)=C(C)S1(=O)=O` (stereo not shown) [Example 18, (tert-butoxy)[4-(3,4-dihydro-2H-1-benzopyran-6-yl)-2,5-dimethyl-1,1-dioxo-1λ^6-thiophen-3-yl]acetic acid], the EC50 under setting [1] was 34 µM.
